Counter-ions that a name gives are not always drawn.
Legend:
skin erythema (sunburn) = assay: Effect for preventing skin sunburn caused by UV rays irradiation (in vivo); design: species or system albino guinea pig (Hartley strain, female); conditions: 3% test compound solution, 24 hours after UV irradiation; for (C): Δa value of test section of skin coated with test compound solution: 10 μl; for inhibition in vivo at 3 %: Cavia porcellus, light or radiation study, topical, 24 h, read-out: Inhibitory ratio of skin erythema (%); for inhibition in vivo at 3 % / Inhibitory ratio of skin erythema (%): {1-[(C)/(D)]}×100
Protocol: (2) Effect for preventing skin sunburn caused by UV rays irradiation (in vivo)
This test is an experimental model of quantitative evaluation of effect for preventing skin sunburn, caused by UV rays irradiation, performed by the test compound. [Test was conducted by a modified method according to the procedures of J. Dermatol. Vol. 17, pp. 595-598, (1990).]
Hairs on the back of an albino guinea pig (Hartley strain, female, age of 7-8 weeks) were shaved by use of an electric hair clipper and an electric shaver. Next day, the guinea pig was fixed on a Bowlman cage, a piece of shading tape (a plaster for patch test) having 4 circular holes of 1.5 cm in diameter was put on the shaved portion of the skin, and predetermined 2 sections of UV rays irradiation. One section (reference section) was coated with 10 μl of a solvent (water or 50% ethanol-water solution). Another section (test section) was coated with 10 μl of 3% test compound solution (aqueous or 50% ethanol-water solution). 30 Minutes after the coating, UV rays of 1.3-1.5 mW/cm^2 in strength was irradiated for 30 minutes by use of a fluorescent lamp of healthy light (TOSHIBA FL-20.cndot.SE) as a light source. 24 Hours after the irradiation, the reference section (coated with the solvent only) and the test section (coated with test compound solution) were observed respectively, and the erythrochromia (Δa value) on both reference section and test section were measured by use of a color difference meter (OFC-300A Type, mfd. by NIHON DENSHOKU KOGYO CO., LTD). The inhibitory ratio of skin erythema (sunburn) performed by the test compound was calculated from the following formula.
Inhibitory ratio of skin erythema (sunburn) (%)={1-[(C)/(D)]}×100
(C): Δa Value of test section of skin coated with test compound solution,
(D): Δa Value of reference section of skin coated with the solvent only, and
Δa value: difference of skin erythema on the portion irradiated with UV rays].

[1] = DPPH free radical extinction activity test; type: biochemical; conditions: relative to α-tocopherol (= 2); 5 μl of 10 mM test compound, 30° C., 30 minutes, pH 5.5 buffer, 517 nm
Protocol: (1) DPPH free radical extinction activity test
The test was conducted by procedures according to the method by Marsden S. Blois [Nature, Vol. […], 1199-1200, (1958)].
Into 0.5 ml of 200 mM of acetic acid buffer solution (pH 5.5) were added 0.5 ml of distilled water, 0.5 ml of ethanol and 5 μl of 10 mM of the test compound solution (an ethanol solution, a dimethylformamide solution or an aqueous solution), and stirred at 30° C. for 5 minutes. To this mixed solution was added 1.5 ml of an ethanol solution of 250 μM of 1,1-diphenyl-2-picrylhydrazyl (DPPH), this mixture was incubated at 30° C. for 30 minutes. After the incubation, the optical absorbance (at 517 nm) of this reaction mixture was measured, and the number of captured free radicals of DPPH was calculated from the ratio of optical absorbance of test compound and that of α-tocopherol (standard substance: the number of captured free radicals: 2) by the following formula: […]
Number of captured free radicals of DPPH performed by test
(A): optical absorbance of the test sample, and
(B): optical absorbance of α-tocopherol].

[2] = tested on: skin reaction (erythema and edema); assay: Skin sensitization test (Adjuvant and strip test), photosensitization; type: in vivo, Albino guinea pigs (Hertley strain, female); conditions: 3% test compound solution, open-coated; observed 24 hours and 48 hours; [(G)/(H)]×100
From the text: (4) Skin sensitization test [Adjuvant and strip test: J. Invest. Dermatol., Vol. 76, pp 498-501, (1981)]
This test was used as experimental model for evaluating the existence of toxicity of photosensitization to the skin performed by the test compounds.
(i) Procedure for inducing photosensitization
Albino guinea pigs (Hertley strain, female, age of 5-6 weeks) were used. Hairs of the nuchal area of the guinea pig were shaved, and designated the test sample coating section having 2×4 cm in size. At the four corners of the test sample coating section, 0.1 ml each of E-FCA (an emulsion consisting of the same volume each of Freund's complete adjuvant with sterilized distilled water) were intracutaneouly injected. The coating section was subjected to striping repeatedly by use of Cellophane tape until the section turned to slightly erythema, then 0.1 ml of test compound solution (aqueous or 50% ethanol-water solution) of 3% in concentration was open-coated on the section. 30 Minutes after the coating, UV rays of about 10 J/cm^2 in dosage was irradiated by use of a fluorescent lamp of healthy light (TOSHIBA FL-20S-BLB) as a light source. The above-mentioned procedure was carried out once a day, and continuously conducted for 5 days, provided that E-FCA was administered only on the first day.
(ii) Procedure for introducing sensitization
3 Weeks after the beginning of induction period of photosensitization, the covering hairs on the back of guinea pig were shaved, and determined a circular section, having 1.5 cm in diameter, for coating test samples, and 20 μl of test compound solution (aqueous or 50% ethanol-water solution) of 3% in concentration was open-coated on the section. The test sample coated section was observed 24 hours and 48 hours, and examined existences of skin reaction (erythema and edema). In case of skin reaction was appeared, then it was determined as positive reaction in skin sensitization which was defined as a positive ratio (%) calculated from the following formula.
Positive ratio (%)=[(G)/(H)]×100
(G): Number of positive reactions in skin sensitization and
(H): Number of total animal tests].

skin pigmentation = assay: Effect for preventing skin pigmentation caused by UV rays irradiation; type: in vivo, colored guinea pig (A-1 strain, female); conditions: 3% test compound solution, 14 days after UV irradiation; for (E): ΔL value of brightness of the skin coated with test compound solution (test section): 10 μl/cm^2; for Inhibitory ratio of skin pigmentation (%): {1-[(E)/(F)]}×100
Protocol: (3) Effect for preventing skin pigmentation caused by UV rays irradiation This is an experimental model of quantitative evaluation of effect for preventing skin pigmentation caused by UV rays irradiation performed by test compound. [Test was conducted by a modified method according to procedures of J. Dermatol. Vol. 17, pp. 595-598,(1990).] Hairs on the back of a colored guinea pig (A-1 strain, female, age of 8-10 weeks) were shaved and the body of guinea pig was fixed on a Bowlman cage, and predermined 2 sections of UV rays irradiation. […] The inhibitory ratio of the skin pigmentation (%) performed by the test compound was calculated from the following formula. […] [wherein (E): ΔL value of brightness of the skin coated with test compound solution (test section), (F): ΔL value of brightness of the skin coated the solvent (reference section), and ΔL value: difference of brightness of the skin between the portion without irradiated and the portion irradiated with UV rays].

[3] = assigned value of the standard α-tocopherol; cited from earlier work

C=CCOc1cc(CN2CCCCC2)c(O)c2c1N(CC=C(C)C)C(=O)CC2 [Example 32]
(C): Δa value of test section of skin coated with test compound solution (skin erythema (sunburn)): 2.17 ± 0.97 | inhibition in vivo at 3 % (skin erythema (sunburn)): 64% | Number of captured free radicals of DPPH [1]: 1 | Positive ratio (%) [2]: 0% | (E): ΔL value of brightness of the skin coated with test compound solution (test section) (skin pigmentation): -3.37 ± 2.36 | Inhibitory ratio of skin pigmentation (%) (skin pigmentation): 42%

C=CCOc1cc(CN2CCCCC2)c(O)c2c1NC(=O)CC2 [Example 33]
(C): Δa value of test section of skin coated with test compound solution (skin erythema (sunburn)): 3.96 ± 1.02 | Inhibitory ratio of skin erythema (%) (skin erythema (sunburn)): 49% | Number of captured free radicals of DPPH [1]: 1.5 | Positive ratio (%) [2]: 0% | (E): ΔL value of brightness of the skin coated with test compound solution (test section) (skin pigmentation): -2.61 ± 2.98 | Inhibitory ratio of skin pigmentation (%) (skin pigmentation): 55%

Cc1c(C)c2c(c(C)c1O)CCC(C)(CCCC(C)CCCC(C)CCCC(C)C)O2 (stereo not drawn) [α-tocopherol]
number of captured free radicals (standard substance) [3]: 2

Cc1cc2c(c(CN3CCCC3)c1O)NC(=O)CC2 [Example 25]
(C): Δa value of test section of skin coated with test compound solution (skin erythema (sunburn)): 3.31 ± 2.00 | inhibition in vivo at 3 % (skin erythema (sunburn)): 64% | Number of captured free radicals of DPPH [1]: 1 | Positive ratio (%) [2]: 0% | (E): ΔL value of brightness of the skin coated with test compound solution (test section) (skin pigmentation): -5.02 ± 2.02 | Inhibitory ratio of skin pigmentation (%) (skin pigmentation): 38%

CCN(CC)Cc1ccc2c(c1O)CCC(=O)N2 [Example 13, 6-diethylaminomethyl-5-hydroxy-3,4-dihydrocarbostyril]
(C): Δa value of test section of skin coated with test compound solution (skin erythema (sunburn)): 3.93 ± 0.92 | inhibition in vivo at 3 % (skin erythema (sunburn)): 42% | Number of captured free radicals of DPPH [1]: 1 | Positive ratio (%) [2]: 0%

C=CCOc1cc(CN(C)C)c(O)c2c1NC(=O)CC2 [Example 18, 8-allyloxy-3,4-dihydro-5-hydroxy-6-dimethyl-aminomethyl-2(1H)-quinolinone hydrochloride]
(C): Δa value of test section of skin coated with test compound solution (skin erythema (sunburn)): 3.87 ± 2.45 | inhibition in vivo at 3 % (skin erythema (sunburn)): 51% | Number of captured free radicals of DPPH [1]: 1.5 | Positive ratio (%) [2]: 0% | (E): ΔL value of brightness of the skin coated with test compound solution (test section) (skin pigmentation): -3.53 ± 1.24 | Inhibitory ratio of skin pigmentation (%) (skin pigmentation): 49%

COc1cc(CN(C)C)c(O)c2c1NC(=O)CC2.Cl [Example 35, 6-(dimethylaminomethyl)-3,4-dihydro-5-hydroxy-8-methoxy-2(1H)-quinolinone hydrochloride]
(C): Δa value of test section of skin coated with test compound solution (skin erythema (sunburn)): 3.61 ± 2.91 | inhibition in vivo at 3 % (skin erythema (sunburn)): 51% | Number of captured free radicals of DPPH [1]: 1.5 | Positive ratio (%) [2]: 0% | (E): ΔL value of brightness of the skin coated with test compound solution (test section) (skin pigmentation): -4.44 ± 2.17 | Inhibitory ratio of skin pigmentation (%) (skin pigmentation): 35%

O=C1CCc2c(O)c(CN3CCCC3)cc(OC3CCCCO3)c2N1 (stereo not shown) [Example 47]
(C): Δa value of test section of skin coated with test compound solution (skin erythema (sunburn)): 0.88 ± 0.29 | inhibition in vivo at 3 % (skin erythema (sunburn)): 76% | Number of captured free radicals of DPPH [1]: 3.5 | Positive ratio (%) [2]: 0% | (E): ΔL value of brightness of the skin coated with test compound solution (test section) (skin pigmentation): -4.89 ± 1.24 | Inhibitory ratio of skin pigmentation (%) (skin pigmentation): 38%

CCN(CC)Cc1cc(C)c2c(c1O)CCC(=O)N2 [Example 9, 5-Hydroxy-6-diethylaminomethyl-8-methyl-3,4-dihydro-2(1H)-quinolinone]
(C): Δa value of test section of skin coated with test compound solution (skin erythema (sunburn)): 4.69 ± 1.62 | inhibition in vivo at 3 % (skin erythema (sunburn)): 38% | Number of captured free radicals of DPPH [1]: 1 | Positive ratio (%) [2]: 0%

C=CCOc1cc(CN2CCCCC2)c(O)c2c1NC(=O)CC2 [Example 28, 8-allyloxy-3,4-dihydro-5-hydroxy-6-(1-piperidinyl)methyl-2(1H)-quinolinonehydrochloride]
(C): Δa value of test section of skin coated with test compound solution (skin erythema (sunburn)): 1.13 ± 0.58 | Inhibitory ratio of skin erythema (%) (skin erythema (sunburn)): 78% | Number of captured free radicals of DPPH [1]: 2 | Positive ratio (%) [2]: 0% | (E): ΔL value of brightness of the skin coated with test compound solution (test section) (skin pigmentation): -4.51 ± 1.87 | Inhibitory ratio of skin pigmentation (%) (skin pigmentation): 43%

CCCOc1cc(CN2CCCCC2)c(O)c2c1NC(=O)CC2.Cl [Example 30, 3,4-dihydro-8-propyloxy-5-hydroxy-6-(1-piperidinyl)methyl-2(1H)-quinolinone hydrochloride]
(C): Δa value of test section of skin coated with test compound solution (skin erythema (sunburn)): 4.73 ± 1.94 | inhibition in vivo at 3 % (skin erythema (sunburn)): 40% | Number of captured free radicals of DPPH [1]: 2 | Positive ratio (%) [2]: 0% | (E): ΔL value of brightness of the skin coated with test compound solution (test section) (skin pigmentation): -3.40 ± 1.18 | Inhibitory ratio of skin pigmentation (%) (skin pigmentation): 50%

Cl.O=c1ccc2c(CN3CCCC3)c(O)ccc2[nH]1 [Example 22, 6-hydroxy-5-(1-pyrrolidinyl)methyl-2(1H)-quinolinone hydrochloride]
(C): Δa value of test section of skin coated with test compound solution (skin erythema (sunburn)): 5.51 ± 2.32 | inhibition in vivo at 3 % (skin erythema (sunburn)): 37% | Number of captured free radicals of DPPH [1]: 1.5 | Positive ratio (%) [2]: 0%

From patent US6133264A, “Carbostyril derivatives for inhibiting skin erythema and/or skin pigmentation” (Otsuka Pharmaceutical Co., Ltd., priority 1997, dated 2000)
